Source: US20110118337A1, “Method of Using Compositions Comprising MIR-192 and/or MIR-215 for the Treatment of Cancer” (Merck Sharp & Dohme Corp., priority 2008, published 2011)

Test system: 18 candidate downstream targets of miR-192/miR-215 in U-2-OS cells
Assay: Transcript abundance of target genes by quantitative PCR (Taqman)
Assay type: cell-based
Details: 10 nM, 10 hours following transfection, relative to luciferase siRNA or miR-192 seed region mutant
Protocol: To further confirm that the candidate genes shown in TABLE 7 and TABLE 8 are direct downstream targets of miR-192/miR-215, miR-192 siRNA (10 nM) synthetic duplexes, miR-192 mutant (10 nM) or 10 nM siRNA against luciferase were transfected into the cell line U-2-OS, an osteosarcoma cell line that has wild-type DICER function and a relatively low endogenous level of miR-192/miR-215.
RNA was isolated at 10 hours post-transfection and transcript abundance of the target genes shown in TABLE 7 and TABLE 8 was measured by quantitative PCR. Transcript abundance was measured by Taqman gene expression assay (Applied Biosystems) using hGUS as an internal control. Levels of transcripts were quantified using an ABI Prism 7900HT sequence detection system.

miR-192: Synthetic duplex mimetic of miR-192, guide CUGACCUAUGAAUUGACAGCC (SEQ ID NO:1), passenger SEQ ID NO:7 (sense CUGUCAAUUCAUCGGUCUGAU; listed as RNA, chemistry not given here; listed as Homo sapiens)
candidate gene transcript levels: decrease
